From patent US20230066011A1, “PYRROLOPYRIMIDINE DERIVATIVE, AND PHARMACEUTICAL COMPOSITION FOR PREVENTING OR TREATING PROTEIN KINASE-RELATED DISEASE COMPRISING SAME AS ACTIVE INGREDIENT” (VORONOI CO., LTD., priority 2019, published 2023)

Columns and labels:
Format in all cases: binding
[1] = molecular target: T1, CLK3 (Homo sapiens, UniProt P49761); test: ScanMAX Kinase analysis panel, CLK3; conditions: 1 μM in DMSO; <35% considered inhibitory; read-out: percent control (% control), CLK3
T1 construct: purchased DiscoverX Corp. (ScanMAX Kinase analysis panel, service)
T1 sequence (P49761 whole entry): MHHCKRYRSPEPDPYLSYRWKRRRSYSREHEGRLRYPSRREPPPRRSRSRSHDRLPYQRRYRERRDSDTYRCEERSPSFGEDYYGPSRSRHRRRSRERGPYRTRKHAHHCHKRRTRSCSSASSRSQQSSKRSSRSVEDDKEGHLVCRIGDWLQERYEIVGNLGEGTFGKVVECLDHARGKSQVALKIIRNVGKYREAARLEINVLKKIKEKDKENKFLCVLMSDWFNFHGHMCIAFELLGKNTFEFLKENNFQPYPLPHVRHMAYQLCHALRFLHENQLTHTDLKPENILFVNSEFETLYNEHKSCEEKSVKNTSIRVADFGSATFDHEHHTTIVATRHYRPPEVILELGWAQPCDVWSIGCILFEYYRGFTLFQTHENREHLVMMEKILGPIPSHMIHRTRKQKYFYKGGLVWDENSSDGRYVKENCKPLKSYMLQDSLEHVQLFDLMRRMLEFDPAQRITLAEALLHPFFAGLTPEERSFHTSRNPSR
Method: (§1) Specifically, the enzyme (kinase) selectivity of Example compounds 238, 361, 411, 157, 161, 228, and 158 selected from the Example compounds of the present invention was determined by commissioning DiscoverX Corp., and an experiment was performed using a ScanMAX™ Kinase analysis panel. In this case, a concentration of the drug with which the enzymes were treated was 1 μM in DMSO, and the percent control (% control) was defined in the same manner as in the following Expression 1.
(§2) (Example Compound−Positive Control)/(Negative Control−Positive Control)×100 [Expression 1]
(§3) wherein the positive control represents a compound having a percent control of 0%, and the negative control represents DMSO having a percent control of 100%. For the enzyme selectivity of the present invention, it was considered that the compound has an inhibitory activity on each of the enzymes when the percent control for the corresponding enzyme was <35% (i. e., less than 35%).

[2] = molecular target: T2, FAK (Homo sapiens, UniProt Q05397); test: ScanMAX Kinase analysis panel, FAK; conditions: 1 μM in DMSO; <35% considered inhibitory; read-out: percent control (% control), FAK
T2 construct: purchased DiscoverX Corp. (ScanMAX Kinase analysis panel, service)
T2 sequence (Q05397 whole entry): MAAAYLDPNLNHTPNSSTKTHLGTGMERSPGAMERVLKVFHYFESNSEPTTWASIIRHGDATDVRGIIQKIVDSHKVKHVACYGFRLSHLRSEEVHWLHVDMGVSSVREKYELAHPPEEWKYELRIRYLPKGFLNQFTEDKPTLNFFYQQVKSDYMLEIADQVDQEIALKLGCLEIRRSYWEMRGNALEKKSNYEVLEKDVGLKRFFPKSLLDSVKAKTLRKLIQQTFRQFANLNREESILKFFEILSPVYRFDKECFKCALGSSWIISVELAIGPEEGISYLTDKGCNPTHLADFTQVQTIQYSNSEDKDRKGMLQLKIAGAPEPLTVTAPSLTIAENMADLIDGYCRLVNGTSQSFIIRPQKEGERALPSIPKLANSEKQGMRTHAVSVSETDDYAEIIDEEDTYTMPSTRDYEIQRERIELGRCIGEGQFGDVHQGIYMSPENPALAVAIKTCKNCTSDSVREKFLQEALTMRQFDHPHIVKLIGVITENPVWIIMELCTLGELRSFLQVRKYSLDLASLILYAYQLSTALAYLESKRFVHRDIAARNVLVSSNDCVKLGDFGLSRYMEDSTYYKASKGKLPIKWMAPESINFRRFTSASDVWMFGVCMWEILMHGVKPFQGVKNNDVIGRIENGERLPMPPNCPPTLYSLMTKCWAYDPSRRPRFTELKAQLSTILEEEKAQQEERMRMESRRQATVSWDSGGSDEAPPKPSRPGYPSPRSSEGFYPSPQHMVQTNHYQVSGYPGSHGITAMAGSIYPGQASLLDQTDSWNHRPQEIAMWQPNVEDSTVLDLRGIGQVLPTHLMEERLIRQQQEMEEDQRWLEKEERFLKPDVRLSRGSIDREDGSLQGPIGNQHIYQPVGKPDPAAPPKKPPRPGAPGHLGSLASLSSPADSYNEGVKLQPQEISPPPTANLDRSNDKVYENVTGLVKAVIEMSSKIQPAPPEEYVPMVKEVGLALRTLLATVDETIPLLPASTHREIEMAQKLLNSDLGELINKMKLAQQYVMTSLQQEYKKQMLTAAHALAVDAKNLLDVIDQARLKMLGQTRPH
Method: as §1, §2, §3

[3] = molecular target: T3, DYRK2 (Homo sapiens, UniProt Q92630); test: ScanMAX Kinase analysis panel, DYRK2; conditions: 1 μM in DMSO; <35% considered inhibitory; read-out: percent control (% control), DYRK2
T3 construct: purchased DiscoverX Corp. (ScanMAX Kinase analysis panel, service)
T3 sequence (Q92630 1-601): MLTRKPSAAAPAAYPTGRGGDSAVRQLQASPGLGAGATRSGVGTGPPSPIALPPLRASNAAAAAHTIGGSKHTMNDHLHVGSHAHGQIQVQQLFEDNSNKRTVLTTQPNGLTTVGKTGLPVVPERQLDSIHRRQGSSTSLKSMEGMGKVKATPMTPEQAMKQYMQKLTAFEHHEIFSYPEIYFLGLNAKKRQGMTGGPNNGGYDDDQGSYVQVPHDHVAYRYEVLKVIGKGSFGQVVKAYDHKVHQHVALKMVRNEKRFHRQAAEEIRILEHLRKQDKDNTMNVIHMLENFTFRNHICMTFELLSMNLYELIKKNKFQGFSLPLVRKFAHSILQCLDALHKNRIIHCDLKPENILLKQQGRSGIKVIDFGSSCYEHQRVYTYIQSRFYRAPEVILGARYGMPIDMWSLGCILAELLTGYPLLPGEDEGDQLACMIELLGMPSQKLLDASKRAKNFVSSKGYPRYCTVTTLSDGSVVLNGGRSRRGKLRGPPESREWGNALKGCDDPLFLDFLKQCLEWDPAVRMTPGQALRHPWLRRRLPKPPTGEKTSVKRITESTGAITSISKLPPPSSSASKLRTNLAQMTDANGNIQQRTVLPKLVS
Method: as §1, §2, §3

[4] = molecular target: T4, TTK (Homo sapiens, UniProt P33981); test: ScanMAX Kinase analysis panel, TTK; parameters: purchased DiscoverX Corp. (commissioned ScanMAX panel service); conditions: 1 μM in DMSO; <35% considered inhibitory; read-out: percent control (% control), TTK
T4 sequence (P33981 1-857): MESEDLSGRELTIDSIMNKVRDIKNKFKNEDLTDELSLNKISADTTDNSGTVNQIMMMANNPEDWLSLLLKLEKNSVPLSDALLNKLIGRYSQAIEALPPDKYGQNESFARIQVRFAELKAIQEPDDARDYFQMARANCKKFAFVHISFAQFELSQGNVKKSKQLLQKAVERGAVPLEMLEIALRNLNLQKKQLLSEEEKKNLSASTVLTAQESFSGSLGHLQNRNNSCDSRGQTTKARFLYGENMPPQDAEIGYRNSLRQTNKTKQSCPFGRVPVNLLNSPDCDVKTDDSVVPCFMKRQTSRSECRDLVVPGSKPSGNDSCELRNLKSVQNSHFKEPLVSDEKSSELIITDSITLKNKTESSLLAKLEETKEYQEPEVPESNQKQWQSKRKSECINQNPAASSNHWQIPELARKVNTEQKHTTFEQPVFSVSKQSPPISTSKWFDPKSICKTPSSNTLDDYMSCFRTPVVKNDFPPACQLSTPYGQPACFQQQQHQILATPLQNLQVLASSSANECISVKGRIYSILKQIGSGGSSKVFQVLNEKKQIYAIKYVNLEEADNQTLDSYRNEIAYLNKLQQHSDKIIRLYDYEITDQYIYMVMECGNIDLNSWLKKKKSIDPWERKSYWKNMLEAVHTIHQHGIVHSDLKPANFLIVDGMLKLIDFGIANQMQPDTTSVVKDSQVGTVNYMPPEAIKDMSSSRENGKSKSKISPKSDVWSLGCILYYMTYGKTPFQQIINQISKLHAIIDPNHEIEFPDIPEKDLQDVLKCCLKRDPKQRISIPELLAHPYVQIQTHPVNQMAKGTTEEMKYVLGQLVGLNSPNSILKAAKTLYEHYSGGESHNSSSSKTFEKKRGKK
Method: as §1, §2, §3

[5] = molecular target: T5, DYRK1A (Homo sapiens, UniProt Q13627); test: ScanMAX Kinase analysis panel, DYRK1A; conditions: 1 μM in DMSO; <35% considered inhibitory; read-out: percent control (% control), DYRK1A
T5 construct: purchased DiscoverX Corp. (ScanMAX Kinase analysis panel, service)
Method: as §1, §2, §3

[6] = molecular target: T6, CSNK1E (Homo sapiens, UniProt P49674); test: ScanMAX Kinase analysis panel, CSNK1E; conditions: 1 μM in DMSO; <35% considered inhibitory; read-out: percent control (% control), CSNK1E
T6 construct: purchased DiscoverX Corp. (ScanMAX Kinase analysis panel, service)
T6 sequence (P49674 whole entry): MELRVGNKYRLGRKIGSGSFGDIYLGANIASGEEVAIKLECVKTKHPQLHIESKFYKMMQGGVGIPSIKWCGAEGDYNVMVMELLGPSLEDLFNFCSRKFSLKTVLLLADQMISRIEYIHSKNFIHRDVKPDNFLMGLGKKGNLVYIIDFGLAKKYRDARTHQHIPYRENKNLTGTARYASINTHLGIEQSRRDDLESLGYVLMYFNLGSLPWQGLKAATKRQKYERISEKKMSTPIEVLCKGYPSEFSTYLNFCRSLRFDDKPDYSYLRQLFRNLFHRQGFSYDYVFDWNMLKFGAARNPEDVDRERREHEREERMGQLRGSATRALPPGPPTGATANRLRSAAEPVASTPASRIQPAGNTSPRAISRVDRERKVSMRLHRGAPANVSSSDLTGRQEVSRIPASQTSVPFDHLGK
Method: as §1, §2, §3

[7] = molecular target: T7, PHKG2 (Homo sapiens, UniProt P15735); test: ScanMAX Kinase analysis panel, PHKG2; conditions: 1 μM in DMSO; <35% considered inhibitory; read-out: percent control (% control), PHKG2
T7 construct: purchased DiscoverX Corp. (ScanMAX Kinase analysis panel, service)
T7 sequence (P15735 1-406): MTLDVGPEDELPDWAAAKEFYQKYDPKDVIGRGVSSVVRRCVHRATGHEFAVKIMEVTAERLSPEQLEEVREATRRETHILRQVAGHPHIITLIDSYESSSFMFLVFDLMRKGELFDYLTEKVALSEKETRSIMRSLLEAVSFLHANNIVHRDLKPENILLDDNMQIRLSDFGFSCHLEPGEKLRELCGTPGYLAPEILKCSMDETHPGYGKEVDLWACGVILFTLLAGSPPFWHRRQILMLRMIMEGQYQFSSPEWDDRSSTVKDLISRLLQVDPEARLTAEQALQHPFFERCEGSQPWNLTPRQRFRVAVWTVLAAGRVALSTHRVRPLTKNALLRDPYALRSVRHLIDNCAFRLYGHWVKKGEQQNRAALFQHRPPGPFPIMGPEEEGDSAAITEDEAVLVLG
Method: as §1, §2, §3

| SMILES | remaining binding at 1 µM [1] | remaining binding at 1 µM [2] | remaining binding at 1 µM [3] | remaining binding at 1 µM [4] | remaining binding at 1 µM [5] | remaining binding at 1 µM [6] | remaining binding at 1 µM [7] |
| --- | --- | --- | --- | --- | --- | --- | --- |
| CNc1nc(Nc2ccc(S(=O)(=O)N3CCC(N4CCOCC4)CC3)cc2OC)nc2[nH]cc(C(F)(F)F)c12 [Example 157, N^2-(2-methoxy-4-((4-morpholinopiperidin-1-yl)sulfonyl)phenyl)-N^4-methyl-5-(trifluoromethyl)-7H-pyrrolo[2,3-d]pyrimidine-2,4-diamine 2,2,2-trifluoroacetate] | 3.7% | 0.85% | 7% | 4% | 0.05% | 2.4% | 5.8% |
| CCNc1nc(Nc2ccc(S(=O)(=O)N3CCC(N4CCOCC4)CC3)cc2OC)nc2[nH]cc(C(F)(F)F)c12 [Example 158, N^4-ethyl-N^2-(2-methoxy-4-((4-morpholinopiperidin-1-yl)sulfonyl)phenyl)-5-(trifluoromethyl)-7H-pyrrolo[2,3-d]pyrimidine-2,4-diamine 2,2,2-trifluoroacetate] | 11% | 1.1% | 25% | 2.6% | 0.75% | 3.3% | 51% |
| CCCNc1nc(Nc2ccc(S(=O)(=O)N3CCC(N4CCOCC4)CC3)cc2OC)nc2[nH]cc(C(F)(F)F)c12 [Example 161, N^2-(2-methoxy-4-((4-morpholinopiperidin-1-yl)sulfonyl)phenyl)-N^4-propyl-5-(trifluoromethyl)-7H-pyrrolo[2,3-d]pyrimidine-2,4-diamine] | 11% | 2.3% | 33% | 4.2% | 2% | 12% | 21% |
| O=C(c1ccc(Nc2nc(C3CC3)c3c(C(F)(F)F)c[nH]c3n2)c2c1OCCO2)N1CCC(N2CCOCC2)CC1 [Example 228, (8-((4-cyclopropyl-5-(trifluoromethyl)-7H-pyrrolo[2,3-d]pyrimidin-2-yl)amino)-2,3-dihydrobenzo[b][1,4]dioxin-5-yl)(4-morpholinopiperidin-1-yl)methanone] | 25% | 24% | 16% | 2.9% | 0.5% | 40% | 5.5% |

Second part, the molecule after the results:

| remaining binding at 1 µM [1] | remaining binding at 1 µM [2] | remaining binding at 1 µM [3] | remaining binding at 1 µM [4] | remaining binding at 1 µM [5] | remaining binding at 1 µM [6] | remaining binding at 1 µM [7] | SMILES |
| --- | --- | --- | --- | --- | --- | --- | --- |
| 7.8% | 7.8% | 19% | 2.9% | 0.25% | 32% | 2.2% | CNc1nc(Nc2ccc(C(=O)N3CCC(N4CCOCC4)CC3)c3c2OCCO3)nc2[nH]cc(C(F)(F)F)c12 [Example 238, (8-((4-(methylamino)-5-(trifluoromethyl)-7H-pyrrolo[2,3-d]pyrimidin-2-yl)amino)-2,3-dihydrobenzo[b][1,4]dioxin-5-yl)(4-morpholinopiperidin-1-yl)methanone] |
| 21% | 0.75% | 10% | 2.4% | 2.6% | 0.05% | 3% | C=CCNc1nc(Nc2ccc(S(=O)(=O)N3CCC(N4CCOCC4)CC3)cc2OC)nc2[nH]cc(C#N)c12 [Example 361, 4-(allylamino)-2-((2-methoxy-4-((4-morpholino-piperidin-1-yl)sulfonyl)phenyl)amino)-7H-pyrrolo[2,3-d]pyrimidine-5-carbonitrile] |
| 21% | 10% | 28% | 2.5% | 0.2% | 31% | 2.5% | CNc1nc(Nc2ccc(P3(=O)CCN(C4CC4)CC3)cc2OC)nc2[nH]cc(C(F)(F)F)c12 [Example 411, 1-cyclopropyl-4-(3-methoxy-4-((4-(methylamino)-5-(trifluoromethyl)-7H-pyrrolo[2,3-d]pyrimidin-2-yl)amino)phenyl)-1,4-azaphosphinane-4-oxide] |
